According to paper PMC3828334, “Tumor Cell Death Mediated by Peptides That Recognize Branched Intermediates of DNA Replication and Repair” (PLoS ONE, 2013):
Where “and” joins values, the source holds several entries; their conditions need not be identical. Equal values may be shown once. Positions of bridges follow the written chain, without caps; N, C: chain ends. Non-standard residues stand in square brackets, D forms with d. Residues, ends and D or L forms follow the SMILES beside them. Chains are numbered I, II in the order given.

Columns and labels:
[1] = test system: Holliday junctions vs replication forks; conditions: in vitro; ref [20], [22], [26]; cited from earlier work
From the text: Our laboratory previously identified peptides and small molecules that bind to Holliday junctions and replication fork mimics, branched DNA structures that are intermediates in DNA repair [18]–[23]. […] In addition to binding HJs in vitro, peptide wrwycr also binds Holliday junctions in vivo [24] and is synergistically toxic with DNA-damaging agents including mitomycin C, UV, H2O2, and topoisomerase inhibitors in bacteria ([25]; Naili, ...

Chk2 in PC3 cells = test: Phospho-Chk2 by flow cytometry; assay type: cell-based; conditions: PC3, 50 µM wrwycr on its own, 48 h
Protocol: They were subsequently treated with either 50-200 μM […] or 50-100 μM […] or 0.5-1 μM doxorubicin or combination treatment for 0, 12, 24, 36 and 48 h. […] Samples were analyzed using a Becton Dickinson FACS Canto flow cytometer at a forward scatter voltage of 25 V, side-scatter voltage of 400 V, and FITC channel at a voltage of 400 V.

LnCAP cells = assay type: cell-based; conditions: 48 h
53BP1 in PC3 cells = test: 53BP1 foci by fluorescence microscopy; assay type: cell-based; conditions: PC3, 48 h
Protocol: 200,000 PC3 cells were plated on cover-slips (Fisherbrand) mounted on each well of the 12-well dishes and allowed to attach overnight at 37°C incubator with 5% CO2. The cells were treated with 50, 100, 150, or 200 µM of wrwycr, or 1, 5, 10, 25, or 50 µM of wrwyrggrywrw for 48 h. […] The samples were probed with 1∶500 diluted mouse anti-γH2AX antibody (Millipore) or 1∶1000 diluted rabbit anti-53BP1 (Novus-Biologicals) with overnight incubation followed by Dylight anti-mouse or anti-rabbit secondary antibodies (Biolegend) respectively. DAPI (5 µg/ml) was used to stain the nucleus. The stained cells on the coverslips were mounted on the glass slides and observed with a Zeiss inverted microscope with AxioVision 4.8 software and using the 100× magnification. Foci of 53BP1 were counted manually and the average number of foci per cell was calculated.

PC3 cells [2] = conditions: 48 h
Protocol: 20,000 PC3 cells were plated overnight in 96 well plates (Costar) at a concentration of 200,000 cells/ml. They are treated with the peptides, doxorubicin, docetaxel alone, or in combination for different time period incubation and the cell viability was determined by MTT assay as described. The percentage survival of the cells with different treatments was calculated using DMSO-vehicle control-treated cells as the standard.

PC3 cells [3] = test: Live/Dead assay by flow cytometry, PC3; assay type: cell-based; conditions: ± standard error, at least 4 replicates
Protocol: PC3 or HeLa cells were seeded at 400,000 or 500,000 cells per well respectively in 6-well tissue culture plates (BD Falcon) and allowed to attach overnight at 37°C with 5% CO2. The cells were incubated with different concentrations of d-wrwycr for 24 or 48 h respectively before the cells were lifted off from the plate. Cell pellets were resuspended in 200 µl of dye […] protocol (Live/dead cytotoxicity kit for mammalian cells, Invitrogen and reference). Data were collected in BDFacs Canto and analyzed using FACSDiva software (Becton-Dickenson).

[4] = test system: GRP78 promoter in HeLa cells; test: Luciferase reporter assay for ER stress; assay type: cell-based; conditions: 24 h
Protocol: HeLa cells were transfected with either either 15 µg of plasmid DJT208, carrying the GRP78 promoter (pGRP78) driving the ER-stress response elements ERSE 1, ERSE 2 and ERSE 3 upstream of the luciferase gene, or 15 µg of the plasmid GL2P, carrying the luciferase gene driven by the SV40 promoter (pSV40). All cells were also co-transfected with 10 µg of the PB1 plasmid, carrying the β-galactosidase reporter transcribed by the SV40 promoter, as a transfection control. [The plasmids were generous gifts from Dr. Peter Belmont from Christopher Glembotski's Lab in SDSU]. After 24 h the cells were treated with increasing concentrations of wrwycr (100, 150 and 200 µM) for 24 h and the luciferase activity was measured using an OptocompII Luminometer. Tunicamycin (TM), a known inducer of ER stress, was used as a positive control for the experiment ER stress was calculated as the fold increase of luciferase gene expression from the GRP78 promoter over that from the SV40 promoter of pGL2P for the different concentrations of the peptide over DMSO, which is the solvent for the peptide, or over the media in the case of TM.

N=C(N)NCCC[C@@H](NC(=O)[C@@H](CSSC[C@@H](NC(=O)[C@@H](Cc1ccc(O)cc1)NC(=O)[C@@H](Cc1c[nH]c2ccccc12)NC(=O)[C@@H](CCCNC(=N)N)NC(=O)[C@H](N)Cc1c[nH]c2ccccc12)C(=O)N[C@H](CCCNC(=N)N)C(N)=O)NC(=O)[C@@H](Cc1ccc(O)cc1)NC(=O)[C@@H](Cc1c[nH]c2ccccc12)NC(=O)[C@@H](CCCNC(=N)N)NC(=O)[C@H](N)Cc1c[nH]c2ccccc12)C(N)=O [wrwycr, Trp-Arg-Trp-Tyr-Cys-Arg] (I: H-[dW][dR][dW][dY][dC][dR]-NH2 / II: H-[dW][dR][dW][dY][dC][dR]-NH2; disulfide I:5-II:5; N-terminus assumed)
higher affinity for HJs than replication forks [1]: 2–5 fold | cells with activated Chk2 (Chk2 in PC3 cells): About 5% | IC50 (LnCAP cells): 100 to 150 µM | accumulation of 53BP1 foci (53BP1 in PC3 cells): accumulation of 53BP1 protein in a dose-dependent manner | IC50 (PC3 cells [2]): 100 µM | PC3 population %Live (PC3 cells [3]; 100 µM wrwycr, calcein AM): 64.9±2.5% | PC3 population % Dead (PC3 cells [3]; 100 µM wrwycr, propidium iodide permeable): 33.4±2.0% | PC3 population % Dead (PC3 cells [3]; 150 µM wrwycr): 33.8±0.6% | PC3 population %Live (PC3 cells [3]; 150 µM wrwycr): 64.4±0.9% | PC3 population % Dead (PC3 cells [3]; 200 µM wrwycr): 40.6±4.8% | PC3 population %Live (PC3 cells [3]; 200 µM wrwycr): 58% and 57.7±4.7% | pGRP78/pSV40 ([4]; 100 µM, ER stress as fold increase GRP78 promoter over SV40 promoter): 0.84±0.1 | pGRP78/pSV40 ([4]; 150 µM): 1.02±0.44 | pGRP78/pSV40 ([4]; 200 µM): 0.87±0.06 | induction of expression of the GRP78 promoter ([4]; 100–200 µM): did not induce expression of the GRP78 promoter
